Laboratory results published in ChEMBL document CHEMBL1147026, “Synthesis of pseudopeptides based L-tryptophan as a potential antimicrobial agent” (Bioorg Med Chem Lett, 2007).
Converted amounts (≈) assume the structure as drawn.

Assays:
[1] = system: Staphylococcus aureus; assay: Antibacterial activity against methicillin-resistant Staphylococcus aureus CMAH 0430 after 24 hrs by two fold dilution method; type: functional
[2] = system: Staphylococcus aureus; assay: Antibacterial activity against methicillin-resistant Staphylococcus aureus CMAH 0504 after 24 hrs by two fold dilution method; type: functional
[3] = system: Escherichia coli; assay: Antimicrobial activity against Escherichia coli ATCC 25922 after 24 hrs by two fold dilution method; type: functional; conditions: ATCC 25922, 24 h
[4] = system: Micrococcus luteus; assay: Antimicrobial activity against Micrococcus luteus CMCC(B) 28001 after 24 hrs by two fold dilution method; type: functional
[5] = system: Pseudomonas aeruginosa; assay: Antimicrobial activity against Pseudomonas aeruginosa ATCC 27853 after 24 hrs by two fold dilution method; type: functional; conditions: ATCC 27853, 24 h
[6] = system: Staphylococcus aureus; assay: Antibacterial activity against methicillin-resistant Staphylococcus aureus CMAH 0515 after 24 hrs by two fold dilution method; type: functional
[7] = system: Staphylococcus aureus; assay: Antibacterial activity against methicillin-susceptible Staphylococcus aureus ATCC 25923 after 24 hrs by two fold dilution method; type: functional; conditions: ATCC 25923, 24 h
[8] = system: Proteus vulgaris; assay: Antimicrobial activity against Proteus vulgaris CMCC(B) 49001 after 24 hrs by two fold dilution method; type: functional
[9] = system: Klebsiella aerogenes; assay: Antibacterial activity against Enterobacter aerogenes CMCC(B) 45103 after 24 hrs by two fold dilution method; type: functional
[10] = system: Candida albicans; assay: Antifungal activity against Candida albicans CMAH 0501 after 48 to 72 hrs by broth microdilution method; type: functional
[11] = system: Bacillus subtilis; assay: Antimicrobial activity against Bacillus subtilis after 24 hrs by two fold dilution method; type: functional
[12] = Toxicity in human erythrocytes assessed as haemolysis upto 4000 ug/mL; type: cell-based, Erythrocyte; conditions: read-out: Activity
[13] = system: Candida albicans; assay: Antifungal activity against Candida albicans CMAH 0527 after 48 to 72 hrs by broth microdilution method; type: functional
[14] = system: Candida albicans; assay: Antifungal activity against Candida albicans CMAH 0511 after 48 to 72 hrs by broth microdilution method; type: functional
[15] = system: Rhodotorula glutinis; assay: Antimicrobial activity against Rhodotorula glutinis SYM 2209 after 48 to 72 hrs by broth microdilution method; type: functional
[16] = system: Cryptococcus neoformans; assay: Antifungal activity against Cryptococcus neoformans ATCC 90112 after 48 to 72 hrs by broth microdilution method; type: functional
[17] = system: Candida albicans; assay: Antifungal activity against fluconazole-resistant Candida albicans CMAH 0520 after 48 to 72 hrs by broth microdilution method; type: functional
[18] = system: Candida albicans; assay: Antifungal activity against Candida albicans CMAM 0592 after 48 to 72 hrs by broth microdilution method; type: functional
[19] = system: Candida albicans; assay: Antifungal activity against Candida albicans CMAM 0594 after 48 to 72 hrs by broth microdilution method; type: functional
[20] = system: Aspergillus sp.; assay: Antifungal activity against Aspergillus sp. after 48 to 72 hrs by broth microdilution method; type: functional; conditions: Aspergillus sp.
[21] = system: Candida albicans; assay: Antifungal activity against fluconazole-resistant Candida albicans CMAM 0597 after 48 to 72 hrs by broth microdilution method; type: functional
[22] = system: Candida albicans; assay: Antifungal activity against Candida albicans CMAH 0572 after 48 to 72 hrs by broth microdilution method; type: functional
[23] = system: Candida albicans; assay: Antifungal activity against Candida albicans CMAM 0577 after 48 to 72 hrs by broth microdilution method; type: functional
[24] = system: Candida albicans; assay: Antifungal activity against Candida albicans CMAH 0503 after 48 to 72 hrs by broth microdilution method; type: functional
[25] = system: Candida albicans; assay: Antifungal activity against Candida albicans CMAH 0507 after 48 to 72 hrs by broth microdilution method; type: functional
[26] = system: Saccharomyces cerevisiae; assay: Antimicrobial activity against Saccharomyces cerevisiae after 48 to 72 hrs by broth microdilution method; type: functional
[27] = system: Candida albicans; assay: Antifungal activity against Candida albicans ATCC 10231 after 48 to 72 hrs by broth microdilution method; type: functional

With `CC1(C)S[C@@H]2[C@H](NC(=O)[C@H](N)c3ccccc3)C(=O)N2[C@H]1C(=O)O` [AMPICILLIN] the MIC [1] was over 64 µg/mL, the MIC [2] was over 64 µg/mL and the MBC [3] was 64 µg/mL (≈ 183 µM). For the same molecule, the MIC [3] was 32 µg/mL (≈ 91.6 µM), the MBC [4] was 0.5 µg/mL (≈ 1.43 µM) and the MIC [4] was 0.3 µg/mL (≈ 0.859 µM). For the same molecule, the MIC [5] was over 64 µg/mL, the MIC [6] was over 64 µg/mL and the MBC [7] was 0.5 µg/mL (≈ 1.43 µM). It also gave an MIC [7] of 0.25 µg/mL (≈ 0.715 µM), an MBC [8] of 0.5 µg/mL (≈ 1.43 µM) and an MIC [8] of 0.3 µg/mL (≈ 0.859 µM). It also gave an MIC [9] of over 64 µg/mL, an MFC [10] of 128 µg/mL (≈ 366 µM) and an MIC [10] of 32 µg/mL (≈ 91.6 µM). For the same molecule, the MBC [11] was 0.25 µg/mL (≈ 0.715 µM) and the MIC [11] was 0.3 µg/mL (≈ 0.859 µM).
In the case of `O=C(N[C@H](CO)[C@H](O)c1ccc([N+](=O)[O-])cc1)C(Cl)Cl` [CHLORAMPHENICOL], the MBC [1] was 2 µg/mL (≈ 6.19 µM), the MIC [1] was 1 µg/mL (≈ 3.09 µM) and the MBC [2] was 2 µg/mL (≈ 6.19 µM). The MIC [2] was 2 µg/mL (≈ 6.19 µM), the MBC [3] was 4 µg/mL (≈ 12.4 µM) and the MIC [3] was 2 µg/mL (≈ 6.19 µM). It also gave an MBC [4] of 4 µg/mL (≈ 12.4 µM), an MIC [4] of 2 µg/mL (≈ 6.19 µM) and an MBC [5] of 64 µg/mL (≈ 198 µM). The MIC [5] was 32 µg/mL (≈ 99 µM), the MBC [6] was 4 µg/mL (≈ 12.4 µM) and the MIC [6] was 2 µg/mL (≈ 6.19 µM). It also gave an MBC [7] of 1 µg/mL (≈ 3.09 µM), an MIC [7] of 1 µg/mL (≈ 3.09 µM) and an MBC [8] of 0.25 µg/mL (≈ 0.774 µM). The MIC [8] was 0.25 µg/mL (≈ 0.774 µM), the hemolysis [12] was 14% and the MBC [9] was 2 µg/mL (≈ 6.19 µM). It also gave an MIC [9] of 2 µg/mL (≈ 6.19 µM), an MBC [11] of 2 µg/mL (≈ 6.19 µM) and an MIC [11] of 2 µg/mL (≈ 6.19 µM).
Work on `OC(Cn1cncn1)(Cn1cncn1)c1ccc(F)cc1F` [FLUCONAZOLE] yielded an MIC [13] of 64 µg/mL (≈ 209 µM), an MIC [14] of 16 µg/mL (≈ 52.2 µM) and an MIC [15] of over 64 µg/mL. It also gave an MIC [16] of 16 µg/mL (≈ 52.2 µM), an MIC [17] of over 64 µg/mL and an MIC [18] of 32 µg/mL (≈ 104 µM). It also gave an MIC [19] of 64 µg/mL (≈ 209 µM), an MIC [20] of over 64 µg/mL and an MIC50 [20] of over 64 µg/mL. For the same molecule, the MIC90 [20] was over 64 µg/mL, the MIC [21] was over 64 µg/mL and the MIC [10] was 16 µg/mL (≈ 52.2 µM). The MIC [22] was 64 µg/mL (≈ 209 µM), the MIC [23] was 64 µg/mL (≈ 209 µM) and the MIC [24] was 32 µg/mL (≈ 104 µM). For the same molecule, the MIC [25] was 64 µg/mL (≈ 209 µM), the MIC [26] was 4 µg/mL (≈ 13.1 µM) and the MIC [27] was 8 µg/mL (≈ 26.1 µM).
Work on `NC[C@H]1O[C@H](O[C@H]2[C@H](O)[C@@H](O[C@H]3O[C@H](CO)[C@@H](O)[C@H](N)[C@H]3O)[C@H](N)C[C@@H]2N)[C@H](O)[C@@H](O)[C@@H]1O` [KANAMYCIN] yielded an MIC [1] of over 64 µg/mL, an MIC [2] of over 64 µg/mL and an MBC [3] of 0.25 µg/mL (≈ 0.516 µM). The MIC [3] was 0.25 µg/mL (≈ 0.516 µM), the MBC [4] was 0.25 µg/mL (≈ 0.516 µM) and the MIC [4] was 0.25 µg/mL (≈ 0.516 µM). The MBC [5] was over 128 µg/mL, the MIC [5] was 64 µg/mL (≈ 132 µM) and the MIC [6] was over 64 µg/mL. It also gave an MBC [7] of 0.5 µg/mL (≈ 1.03 µM), an MIC [7] of 0.25 µg/mL (≈ 0.516 µM) and an MBC [8] of 0.5 µg/mL (≈ 1.03 µM). The MIC [8] was 0.25 µg/mL (≈ 0.516 µM), the MBC [9] was 0.25 µg/mL (≈ 0.516 µM) and the MIC [9] was 0.25 µg/mL (≈ 0.516 µM). The MBC [11] was 4 µg/mL (≈ 8.26 µM) and the MIC [11] was 4 µg/mL (≈ 8.26 µM).
